In ChEMBL document CHEMBL1201862, “PubChem BioAssay data set” (2004):
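Exposure lasted 48 hours, with cells grown in 96-well plates and compounds tested at five concentrations. GI50 is the concentration that inhibits growth by half.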 The source made the active and inactive calls. No stated cut-off is given here; in the data, active = GI50 up to about 1.1 µM and inactive = higher.

Legend:
Assay in all cases: NCI-60 cell line screen, 48 h
BT-549 = tested on: BT-549
EKVX = tested on: EKVX
Hs-578T = tested on: Hs-578T
IGROV-1 = tested on: IGROV-1
LOX IMVI = tested on: LOX IMVI
M14 = tested on: M14
Malme-3M = tested on: Malme-3M
NCI-H460 = tested on: NCI-H460
RPMI-8226 = tested on: RPMI-8226
RXF 393 = tested on: RXF 393
SF-268 = tested on: SF-268
SF-539 = tested on: SF-539
SK-MEL-28 = tested on: SK-MEL-28
SK-MEL-2 = tested on: SK-MEL-2
SK-MEL-5 = tested on: SK-MEL-5
T47D = tested on: T47D
TK-10 = tested on: TK-10
U-251 = tested on: U-251
UACC-257 = tested on: UACC-257
UO-31 = tested on: UO-31

Measured: GI50

COc1cc2c3cc1Oc1cc(ccc1O)C[C@@H]1c4c(cc(OC)c(O)c4Oc4ccc(cc4)C[C@@H]3N(C)CC2)CC[N+]1(C)C
inactive: BT-549 > 100 µM | EKVX > 100 µM | Hs-578T 13.5 µM | IGROV-1 > 100 µM | LOX IMVI 17.8 µM | M14 16.8 µM | Malme-3M 17.8 µM | NCI-H460 33.3 µM | RPMI-8226 79.6 µM | RXF 393 13.6 µM | SF-268 32.4 µM | SF-539 15.1 µM | SK-MEL-28 > 100 µM | SK-MEL-2 90.2 µM | SK-MEL-5 > 100 µM | T47D 23.8 µM | TK-10 > 100 µM | U-251 28.9 µM | UACC-257 56 µM | UO-31 > 100 µM

O=C1CCC(CCc2nc3ccccc3[nH]2)(c2ccccc2)C(=O)N1 (stereo not given)
inactive: BT-549 > 100 µM | EKVX 62.4 µM | Hs-578T 29.7 µM | IGROV-1 64 µM | LOX IMVI > 100 µM | M14 > 100 µM | Malme-3M > 100 µM | NCI-H460 > 100 µM | RPMI-8226 > 100 µM | RXF 393 > 100 µM | SF-268 > 100 µM | SF-539 > 100 µM | SK-MEL-28 > 100 µM | SK-MEL-2 > 100 µM | SK-MEL-5 > 100 µM | T47D > 100 µM | TK-10 > 100 µM | U-251 > 100 µM | UACC-257 > 100 µM | UO-31 20.2 µM

C#C[C@]1(O)CC[C@H]2[C@@H]3CCC4=C/C(=N/OC(=O)c5cccc6c(=O)c7ccccc7[nH]c56)CC[C@@H]4[C@H]3CC[C@@]21C
inactive: BT-549 37.2 µM | EKVX 71 µM | Hs-578T 54.1 µM | IGROV-1 68.4 µM | LOX IMVI 34 µM | M14 56.5 µM | Malme-3M 45 µM | NCI-H460 37.2 µM | RPMI-8226 13.6 µM | RXF 393 > 100 µM | SF-268 80 µM | SF-539 29.5 µM | SK-MEL-28 62.4 µM | SK-MEL-2 57.4 µM | SK-MEL-5 20.2 µM | T47D 29 µM | TK-10 > 100 µM | U-251 62.1 µM | UACC-257 37.2 µM | UO-31 53.5 µM

COC(=O)C(Cc1c(C2Nc3ccccc3C2CC(NC(C)=O)C(=O)OC)[nH]c2ccccc12)NC(C)=O (stereo not given)
inactive: BT-549 > 100 µM | EKVX > 100 µM | Hs-578T > 100 µM | IGROV-1 > 100 µM | LOX IMVI > 100 µM | M14 > 100 µM | Malme-3M > 100 µM | NCI-H460 > 100 µM | RPMI-8226 > 100 µM | RXF 393 > 100 µM | SF-268 > 100 µM | SF-539 > 100 µM | SK-MEL-28 > 100 µM | SK-MEL-2 > 100 µM | SK-MEL-5 > 100 µM | T47D > 100 µM | TK-10 > 100 µM | U-251 > 100 µM | UACC-257 > 100 µM | UO-31 > 100 µM

CC(=O)c1c(=O)n(-c2ccc(C)cc2)c(O)c2c(N)n[nH]c12
inactive: BT-549 > 100 µM | EKVX > 100 µM | Hs-578T > 100 µM | IGROV-1 > 100 µM | LOX IMVI > 100 µM | M14 > 100 µM | Malme-3M > 100 µM | NCI-H460 > 100 µM | RPMI-8226 > 100 µM | RXF 393 > 100 µM | SF-268 > 100 µM | SF-539 > 100 µM | SK-MEL-28 > 100 µM | SK-MEL-2 > 100 µM | SK-MEL-5 > 100 µM | T47D > 100 µM | TK-10 > 100 µM | U-251 > 100 µM | UACC-257 > 100 µM | UO-31 60 µM

COc1cc(C(=O)Nc2c3ccccc3nc3ccccc23)cc(OC)c1OC
inactive: BT-549 > 100 µM | EKVX > 59 µM | Hs-578T > 100 µM | IGROV-1 > 100 µM | LOX IMVI > 100 µM | M14 > 53.6 µM | Malme-3M > 78.3 µM | NCI-H460 > 70.8 µM | RPMI-8226 > 100 µM | RXF 393 14.2 µM | SF-268 28.9 µM | SF-539 > 100 µM | SK-MEL-28 > 100 µM | SK-MEL-2 > 100 µM | SK-MEL-5 > 100 µM | T47D > 100 µM | TK-10 > 100 µM | U-251 > 100 µM | UACC-257 > 100 µM | UO-31 40.3 µM

O=[N+]([O-])c1cc(/C=N/C23CC4CC(CC(C4)C2)C3)ccc1Cl
inactive: BT-549 21 µM | EKVX 29.9 µM | Hs-578T 38.8 µM | IGROV-1 23.6 µM | LOX IMVI 19 µM | M14 12.3 µM | Malme-3M 20.9 µM | NCI-H460 31.8 µM | RPMI-8226 4.31 µM | RXF 393 19.2 µM | SF-268 28.7 µM | SF-539 22.9 µM | SK-MEL-28 18.1 µM | SK-MEL-2 20.5 µM | SK-MEL-5 21.5 µM | T47D 18.2 µM | TK-10 29.7 µM | U-251 18.7 µM | UACC-257 20.7 µM | UO-31 7.52 µM

CN(NC(=O)/C(=C/C=C/c1ccccc1)NC(=O)c1ccccc1)C1=C(Cl)C(=O)[N+](c2ccccc2)=CC1
inactive: BT-549 22.5 µM | EKVX 35.8 µM | Hs-578T 42.7 µM | IGROV-1 12.1 µM | LOX IMVI 17.3 µM | M14 18.1 µM | Malme-3M 37.9 µM | NCI-H460 37.6 µM | RPMI-8226 23.9 µM | RXF 393 20.1 µM | SF-268 29.6 µM | SF-539 19.7 µM | SK-MEL-28 16.9 µM | SK-MEL-2 26.2 µM | SK-MEL-5 14.4 µM | T47D 15.7 µM | TK-10 55.2 µM | U-251 19.8 µM | UACC-257 41.2 µM | UO-31 26.5 µM

O=CNC(Cc1c[nH]cn1)C(=O)O (stereo not given)
inactive: BT-549 > 100 µM | EKVX > 100 µM | Hs-578T > 100 µM | IGROV-1 > 100 µM | LOX IMVI > 100 µM | M14 > 100 µM | Malme-3M > 100 µM | NCI-H460 > 100 µM | RPMI-8226 > 100 µM | RXF 393 > 100 µM | SF-268 > 100 µM | SF-539 > 100 µM | SK-MEL-28 > 100 µM | SK-MEL-2 > 100 µM | SK-MEL-5 > 100 µM | T47D > 100 µM | TK-10 > 100 µM | U-251 > 100 µM | UACC-257 > 100 µM | UO-31 > 100 µM

Cn1c(=O)c2[nH]c(C3CC(=O)CC(c4nc5c([nH]4)c(=O)n(C)c(=O)n5C)N3)nc2n(C)c1=O (stereo not given)
inactive: BT-549 > 100 µM | EKVX > 100 µM | Hs-578T > 100 µM | IGROV-1 > 100 µM | LOX IMVI > 100 µM | M14 > 100 µM | Malme-3M > 100 µM | NCI-H460 > 100 µM | RPMI-8226 > 100 µM | RXF 393 > 100 µM | SF-268 > 100 µM | SF-539 > 100 µM | SK-MEL-28 > 100 µM | SK-MEL-2 > 100 µM | SK-MEL-5 > 100 µM | T47D > 100 µM | TK-10 > 100 µM | U-251 91 µM | UACC-257 > 100 µM | UO-31 > 100 µM
